Test results taken from the supplement of paper PMC4862054.

How the values were obtained:
Conditions in all cases: incubation time: 72 h
BT-474 [1] = test: normalised response (% of control), CellTox Green; higher = less cell death (100 = DMSO, 0 = benzethonium chloride kill control)
Outline: (§1)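 Each entry is the normalised signal at a single concentration within a series. The series comprised 5 concentrations in 10-fold steps over a compound-specific 10,000-fold range, placed in 384-well plates into which breast cancer cell lines were seeded as 20 µl suspension and incubated 72 h. CellTox Green (485/520 nm) fluorescence and then CellTiter-Glo luminescence were read, with signals normalised per plate to 0.1 % DMSO (100) and a positive kill control (0).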

BT-549 [2] = test: as above
Outline: as §1

CAL-120 [3] = test: as above
Outline: as §1

CAL-148 [4] = test: as above
Outline: as §1

CAL-51 [5] = test: as above
Outline: as §1

CAL-85-1 [6] = test: as above
Outline: as §1

DU-4475 [7] = test: as above
Outline: as §1

HCC1143 [8] = test: as above
Outline: as §1

HCC1599 [9] = test: as above
Outline: as §1

HCC1937 [10] = test: as above
Outline: as §1

HDQ-P1 [11] = test: as above
Outline: as §1

Hs578T [12] = test: as above
Outline: as §1

MCF-10A [13] = test: as above
Outline: as §1

MDA-MB-231 [14] = test: as above
Outline: as §1

MDA-MB-436 [15] = test: as above
Outline: as §1

MDA-MB-453 [16] = test: as above
Outline: as §1

MDA-MB-468 [17] = test: as above
Outline: as §1

MFM-223 [18] = test: as above
Outline: as §1

BT-474 [19] = test: normalised response (% of control), CellTiter-Glo; higher = more viable cells (100 = DMSO, 0 = benzethonium chloride kill control)
Outline: as §1

BT-549 [20] = test: as above
Outline: as §1

CAL-120 [21] = test: as above
Outline: as §1

CAL-148 [22] = test: as above
Outline: as §1

CAL-51 [23] = test: as above
Outline: as §1

CAL-85-1 [24] = test: as above
Outline: as §1

DU-4475 [25] = test: as above
Outline: as §1

HCC1143 [26] = test: as above
Outline: as §1

HCC1599 [27] = test: as above
Outline: as §1

HCC1937 [28] = test: as above
Outline: as §1

HDQ-P1 [29] = test: as above
Outline: as §1

Hs578T [30] = test: as above
Outline: as §1

MCF-10A [31] = test: as above
Outline: as §1

MDA-MB-231 [32] = test: as above
Outline: as §1

MDA-MB-436 [33] = test: as above
Outline: as §1

MDA-MB-453 [34] = test: as above
Outline: as §1

MDA-MB-468 [35] = test: as above
Outline: as §1

MFM-223 [36] = test: as above
Outline: as §1

SK-BR-3 = test: as above
Outline: as §1

| Structure (SMILES) | normalised response (BT-474 [1]) [%] | normalised response (BT-549 [2]) [%] | normalised response (CAL-120 [3]) [%] | normalised response (CAL-148 [4]) [%] | normalised response (CAL-51 [5]) [%] | normalised response (CAL-85-1 [6]) [%] | normalised response (DU-4475 [7]) [%] | normalised response (HCC1143 [8]) [%] | normalised response (HCC1599 [9]) [%] | normalised response (HCC1937 [10]) [%] | normalised response (HDQ-P1 [11]) [%] | normalised response (Hs578T [12]) [%] | normalised response (MCF-10A [13]) [%] | normalised response (MDA-MB-231 [14]) [%] | normalised response (MDA-MB-436 [15]) [%] | normalised response (MDA-MB-453 [16]) [%] | normalised response (MDA-MB-468 [17]) [%] | normalised response (MFM-223 [18]) [%] | normalised response (BT-474 [19]) [%] | normalised response (BT-549 [20]) [%] | normalised response (CAL-120 [21]) [%] | normalised response (CAL-148 [22]) [%] | normalised response (CAL-51 [23]) [%] | normalised response (CAL-85-1 [24]) [%] | normalised response (DU-4475 [25]) [%] | normalised response (HCC1143 [26]) [%] | normalised response (HCC1599 [27]) [%] | normalised response (HCC1937 [28]) [%] | normalised response (HDQ-P1 [29]) [%] | normalised response (Hs578T [30]) [%] | normalised response (MCF-10A [31]) [%] | normalised response (MDA-MB-231 [32]) [%] | normalised response (MDA-MB-436 [33]) [%] | normalised response (MDA-MB-453 [34]) [%] | normalised response (MDA-MB-468 [35]) [%] | normalised response (MFM-223 [36]) [%] | normalised response (SK-BR-3) [%] |
| --- | --- | --- | --- | --- | --- | --- | --- | --- | --- | --- | --- | --- | --- | --- | --- | --- | --- | --- | --- | --- | --- | --- | --- | --- | --- | --- | --- | --- | --- | --- | --- | --- | --- | --- | --- | --- | --- |
| CC(O)(CS(=O)(=O)c1ccc(F)cc1)C(=O)Nc1ccc(C#N)c(C(F)(F)F)c1 (stereo unspecified) [Bicalutamide] (100 nM) | 102 | 85 | 99.5 | 102 | 98.3 | 95.9 | 100 | 107 | 116 | 106 | 115 | 90.6 | 85.1 | 110 | 108 | 108 | 131 | 89.8 | 108 | 102 | 105 | 110 | 80.7 | 98.9 | 105 | 103 | 103 | 100 | 100 | 96.7 | 106 | 117 | 107 | 114 | 105 | 107 | 113 |
| Cc1nc(C(=O)NCC(=O)O)c(O)c2ccc(Oc3ccccc3)cc12 [FG-4592] (100 nM) | 98.2 | 105 | 102 | 95.8 | 102 | 103 | 105 | 109 | 90.1 | 79.8 | 106 | 94.9 | 101 | 112 | 97 | 103 | 114 | 92.8 | 101 | 106 | 102 | 108 | 97.4 | 104 | 103 | 106 | 112 | 98 | 98.3 | 105 | 115 | 111 | 98.6 | 101 | 97.1 | 106 | 112 |
| C=CCN(/C=C1/C(=O)O[C@H](COC)[C@@]2(C)C1=C(O)C(=O)C1=C2[C@H](OC(C)=O)C[C@]2(C)C(=O)CC[C@@H]12)CC=C [Sonolisib] (100 nM) | 96.5 | 108 | 101 | 98.6 | 102 | 106 | 106 | 117 | 115 | 121 | 63.5 | 73.7 | 72.8 | 110 | 107 | 106 | 112 | 109 | 106 | 106 | 109 | 116 | 85.2 | 109 | 105 | 105 | 104 | 99.7 | 102 | 94.7 | 108 | 107 | 106 | 102 | 105 | 107 | 107 |
| C/C(=C\c1csc(C)n1)[C@@H]1C[C@@H]2O[C@]2(C)CCC[C@H](C)[C@H](O)[C@@H](C)C(=O)C(C)(C)[C@@H](O)CC(=O)N1 [Ixabepilone] (10 nM) | 98.7 | 82.4 | 102 | 94.7 | 102 | 99 | 104 | 80.8 | 101 | 107 | 101 | 84 | 84.4 | 102 | 86.6 | 93.6 | 123 | 95.7 | 100 | 102 | 102 | 102 | 86 | 97.5 | 104 | 102 | 95.2 | 95.4 | 102 | 107 | 108 | 98.6 | 106 | 101 | 93.7 | 105 | 113 |
| CC[C@H](CO)Nc1nc(NCc2ccccc2)c2ncn(C(C)C)c2n1 [Seliciclib] (100 nM) | 97.1 | 102 | 98.4 | 108 | 105 | 92.4 | 101 | 82.7 | 109 | 118 | 105 | 100 | 104 | 96 | 61.4 | 104 | 102 | 107 | 105 | 102 | 97.6 | 112 | 101 | 98.6 | 104 | 106 | 110 | 94.2 | 101 | 104 | 97.1 | 99.8 | 105 | 114 | 102 | 107 | 106 |
| CN(Cc1cnc2nc(N)nc(N)c2n1)c1ccc(C(=O)N[C@@H](CCC(=O)O)C(=O)O)cc1 [Methotrexate] (500 nM) | 102 | 99.2 | 100 | 102 | 104 | 98.4 | 105 | 114 | 102 | 112 | 102 | 87.8 | 96.5 | 84.1 | 105 | 106 | 118 | 101 | 101 | 102 | 81.8 | 106 | 95.3 | 95.6 | 105 | 96.4 | 118 | 27.3 | 57 | 102 | 104 | 111 | 91.9 | 110 | 101 | 105 | 108 |
| O=C(O)CNC(=O)c1c(O)c2ccccc2n(Cc2ccccc2)c1=O [IOX-2] (500 nM) | 103 | 97.3 | 97.7 | 73.2 | 73.4 | 112 | 111 | 83.3 | 99.3 | 95.6 | 100 | 99.3 | 95.2 | 110 | 98.3 | 104 | 115 | 101 | 99.2 | 94.7 | 103 | 92.9 | 61.5 | 99 | 101 | 98.4 | 98.5 | 97.2 | 102 | 99.4 | 104 | 100 | 94.4 | 105 | 90.4 | 97.1 | 96.3 |
| CC(C)C[C@H](NC(=O)[C@@H](COC(C)(C)C)NC(=O)[C@H](Cc1ccc(O)cc1)NC(=O)[C@H](CO)NC(=O)[C@H](Cc1c[nH]c2ccccc12)NC(=O)[C@H](Cc1cnc[nH]1)NC(=O)[C@@H]1CCC(=O)N1)C(=O)N[C@@H](CCCNC(=N)N)C(=O)N1CCC[C@H]1C(=O)NNC(N)=O [Goserelin] (100 nM) | 101 | 108 | 96.2 | 87.4 | 60.7 | 99.8 | 97.8 | 55.7 | 86.3 | 89.5 | 108 | 78.9 | 98.9 | 89.7 | 89.7 | 105 | 129 | 99.1 | 99.2 | 103 | 103 | 93.8 | 71 | 97.3 | 97.4 | 98.7 | 94.2 | 95.8 | 99.9 | 97.1 | 94 | 99 | 101 | 101 | 102 | 94.9 | 92.7 |
